Experimental data as given in ChEMBL document CHEMBL3421572, “Synthesis of Schiff base derivatives of 4-(2-aminoethyl)-benzenesulfonamide with inhibitory activity against carbonic anhydrase isoforms I, II, IX and XII” (Bioorg Med Chem Lett, 2015).
pKi: −log10 of the molar value.

How the values were obtained:
Carbonic anhydrase 9 = Carbonic anhydrase 9 (Homo sapiens, UniProt Q16790)
Carbonic anhydrase 12 = Carbonic anhydrase 12 (Homo sapiens, UniProt O43570)
Description: Inhibition of recombinant human transmembrane, tumor-associated form of carbonic anhydrase-12 preincubated for 15 mins by stopped flow CO2 hydration assay

[1] = Chemical stability of the compound in HEPES buffer assessed as compound remaining at 10 mg at pH 7.4 measured at 5 hrs by HPLC method; assay type: physicochemical; settings: read-out: Stability
[2] = Chemical stability of the compound in HEPES buffer assessed as compound remaining at 10 mg at pH 7.4 measured at 24 hrs by HPLC method; assay type: physicochemical; settings: read-out: Stability
[3] = Chemical stability of the compound in HEPES buffer assessed as compound remaining at 10 mg at pH 7.4 measured at 10 hrs by HPLC method; assay type: physicochemical; settings: read-out: Stability
[4] = Chemical stability of the compound in HEPES buffer assessed as compound remaining at 10 mg at pH 7.4 measured at 0 hr by HPLC method; assay type: physicochemical; settings: read-out: Stability
[5] = Chemical stability of the compound in HEPES buffer assessed as compound remaining at 10 mg at pH 7.4 measured at 3 hrs by HPLC method; assay type: physicochemical; settings: read-out: Stability
Carbonic anhydrase 1 = Carbonic anhydrase 1 (Homo sapiens, UniProt P00915)
Sequence of Carbonic anhydrase 1 (P00915 whole entry): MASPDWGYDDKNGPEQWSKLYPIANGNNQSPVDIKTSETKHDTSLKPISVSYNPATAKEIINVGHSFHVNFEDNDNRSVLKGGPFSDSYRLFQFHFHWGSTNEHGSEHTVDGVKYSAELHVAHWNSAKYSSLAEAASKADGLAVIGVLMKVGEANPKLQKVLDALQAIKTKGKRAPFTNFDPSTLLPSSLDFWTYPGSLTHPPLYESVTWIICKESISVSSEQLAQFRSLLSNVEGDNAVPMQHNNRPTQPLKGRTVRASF
Description: Inhibition of recombinant human cytosolic form of carbonic anhydrase-1 preincubated for 15 mins by stopped flow CO2 hydration assay

Sequence of Carbonic anhydrase 12 (O43570 whole entry): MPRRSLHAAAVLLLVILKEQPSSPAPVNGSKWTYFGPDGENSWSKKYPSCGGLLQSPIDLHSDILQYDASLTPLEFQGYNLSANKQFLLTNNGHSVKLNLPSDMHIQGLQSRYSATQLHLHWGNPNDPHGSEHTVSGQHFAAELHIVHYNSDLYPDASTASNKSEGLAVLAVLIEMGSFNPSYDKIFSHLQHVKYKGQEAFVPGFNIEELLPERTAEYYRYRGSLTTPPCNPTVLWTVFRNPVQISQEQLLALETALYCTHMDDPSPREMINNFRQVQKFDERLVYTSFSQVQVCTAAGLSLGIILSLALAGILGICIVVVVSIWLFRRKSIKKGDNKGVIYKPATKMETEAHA

With `NS(=O)(=O)c1ccc(CC/N=C\c2ccc(OCc3ccccc3)cc2)cc1` the pKi (Carbonic anhydrase 9) was 6.64.

With `Cc1cccc(/C=N\CCc2ccc(S(N)(=O)=O)cc2)c1O` the pKi (Carbonic anhydrase 9) was 6.53.

Compound `NS(=O)(=O)c1ccc(CCNCc2cc(Cl)ccc2O)cc1` has a pKi (Carbonic anhydrase 9) of 7.81.

`Cc1ccc(CNCCc2ccc(S(N)(=O)=O)cc2)cc1` gave a pKi (Carbonic anhydrase 9) of 7.99.

In the case of `CCN[C@H]1C[C@H](C)S(=O)(=O)c2sc(S(N)(=O)=O)cc21` [DORZOLAMIDE], the pKi (Carbonic anhydrase 12) was 8.52.

Compound `NS(=O)(=O)c1ccc(CC/N=C\c2cc(Br)cc(Br)c2O)cc1` has a pKi (Carbonic anhydrase 9) of 6.79.

In the case of `NS(=O)(=O)c1ccc(CCNCc2ccc(OCc3ccccc3)cc2)cc1`, the pKi (Carbonic anhydrase 9) was 8.54.

Compound `NS(=O)(=O)c1ccc(CC/N=C\c2cc(Br)ccc2O)cc1` has a pKi (Carbonic anhydrase 9) of 6.73.

Compound `Cc1ccc(/C=N\CCc2ccc(S(N)(=O)=O)cc2)cc1` has a pKi (Carbonic anhydrase 9) of 6.91.

For `Cc1cccc(CNCCc2ccc(S(N)(=O)=O)cc2)c1O`, the pKi (Carbonic anhydrase 9) was 8.43.

`COc1ccc(CNCCc2ccc(S(N)(=O)=O)cc2)cc1` showed a remaining at 5 h [1] of 100%, a remaining at 24 h [2] of 100% and a remaining at 10 h [3] of 100%. The pKi (Carbonic anhydrase 12) was 7.42, the remaining at 0 h [4] was 100% and the remaining at 3 h [5] was 100%. It also gave a pKi (Carbonic anhydrase 1) of 8.34.

In the case of `CN(C)c1ccc(/C=N\CCc2ccc(S(N)(=O)=O)cc2)cc1`, the pKi (Carbonic anhydrase 12) was 5.51, the pKi (Carbonic anhydrase 1) was 6.34 and the pKi (Carbonic anhydrase 9) was 7.41.

Work on `NS(=O)(=O)c1ccc(CCNCc2cc(Br)ccc2O)cc1` yielded a pKi (Carbonic anhydrase 9) of 8.37.

Compound `NS(=O)(=O)c1ccc(CCNCc2ccccc2O)cc1` has a pKi (Carbonic anhydrase 9) of 8.41.

Work on `NS(=O)(=O)c1ccc(CC/N=C\c2cc(Cl)ccc2O)cc1` yielded a pKi (Carbonic anhydrase 9) of 6.97.

`NS(=O)(=O)c1ccc(CC/N=C\c2ccccc2)cc1` showed a remaining at 5 h [1] of 89%, a remaining at 24 h [2] of 14% and a remaining at 10 h [3] of 51%. It also gave a remaining at 0 h [4] of 100%, a remaining at 3 h [5] of 100% and a pKi (Carbonic anhydrase 9) of 6.66.

Work on `NS(=O)(=O)c1ccc(CCNCc2cc(Br)cc(Br)c2O)cc1` yielded a pKi (Carbonic anhydrase 9) of 8.39.

`NS(=O)(=O)c1ccc(CC/N=C\c2cc(Cl)cc(Cl)c2O)cc1` gave a pKi (Carbonic anhydrase 9) of 6.72.

Compound `NS(=O)(=O)c1ccc(CCNCc2ccccc2)cc1` has a remaining at 5 h [1] of 100%, a remaining at 24 h [2] of 100% and a remaining at 10 h [3] of 100%. For the same compound, the pKi (Carbonic anhydrase 12) was 8.20, the remaining at 0 h [4] was 100% and the remaining at 3 h [5] was 100%. For the same compound, the pKi (Carbonic anhydrase 9) was 8.37.

Work on `COc1ccc(/C=N\CCc2ccc(S(N)(=O)=O)cc2)cc1` yielded a remaining at 5 h [1] of 72%, a remaining at 24 h [2] of 8% and a remaining at 10 h [3] of 43%. For the same compound, the remaining at 0 h [4] was 100%, the remaining at 3 h [5] was 100% and the pKi (Carbonic anhydrase 9) was 6.64.

For `NS(=O)(=O)c1ccc(CC/N=C\c2ccccc2O)cc1`, the pKi (Carbonic anhydrase 12) was 7.33, the pKi (Carbonic anhydrase 1) was 6.41 and the pKi (Carbonic anhydrase 9) was 6.86.
